Laboratory results taken from patent US11602570B2, “Compositions and systems for renal function determination” (MediBeacon Inc., priority 2017, dated 2023).

Assays:
[1] = Clinical study: plasma pharmacokinetics of MB-102 given intravenously to human patients; type: in vivo
Procedure: (§1) In a clinical study, 60 human patients were administered MB-102 ((2R,2′R)-2,2′-((3,6-diaminopyrazine-2,5-dicarbonyl)bis(azanediyl))bis(3-hydroxypropanoic acid)) prepared in Example 12) intravenously. Blood and urine were collected in addition to the methods and techniques disclosed herein. Standard pharmacokinetic data was collected and comparison was made between the methods and techniques disclosed herein to Omnipaque® (iohexol), a known contrast agent used for GFR determination.
Shown in FIGS. 3A to 3D are data collected from the 60 human patients tested with MB-102. Plasma pharmacokinetic data was collected and analyzed using methods known in the art and compared to the data measured using the methods and techniques disclosed herein.
FIGS. 3A to 3D illustrate a two compartment pharmacokinetic model for the elimination of MB-102. The model is consistent for patients regardless of their GFR values. FIG. 3A is for patients having normal kidney function having a measured GFR (mGFR) of 120 mL/min. FIG. 3B is for patients having a mGFR of 81 mL/min. FIG. 3C is for patients having a mGFR of 28 mL/min. FIG. 3D is for patients having a mGFR of 25 mL/min. The first compartment in the two compartment model is the vascular to tissue equilibrium while the second compartment illustrates renal excretion only. On average, the time for equilibration is about one hour, and is subject dependent.
Shown in FIG. 6 is the plasma concentration half-life of MB-102 for patients having either normal kidney function, stage 1 renal impairment, stage 2 renal impairment, stage 3 renal impairment, or stage 4 renal impairment.

[2] = Stability testing of MB-102, HPLC evaluation; type: physicochemical; conditions: 25° C. and 60% relative humidity
Procedure: Samples of MB-102 were prepared and stored at 25° C. and 60% relative humidity for 24 months. HPLC evaluation of each sample was performed at various time points to assess the stability of the samples.

[3] = Clinical study: 12 hour urine collection, amount recovered and degree of secondary metabolism; type: in vivo, human
Procedure: as §1
As part of the clinical 1 study for MB-102, urine was collected from patients for 12 hours to determine the amount recovered and degree of secondary metabolism. […] For patients having normal, stage 1 and stage 2 renal function, 12 hour collection time was sufficient for greater than 99% recovery of MB-102. In view of the pharmacokinetic data and the plasma half-life determination, less than complete collection is readily understood for patients having more serious renal function impairment.

Compound: Nc1nc(C(=O)N[C@H](CO)C(=O)O)c(N)nc1C(=O)N[C@H](CO)C(=O)O [MB-102, (2R,2′R)-2,2′-((3,6-diaminopyrazine-2,5-dicarbonyl)bis(azanediyl))bis(3-hydroxypropanoic acid)]
- time for equilibration (vascular to tissue equilibrium) ([1]; human patients, intravenous, on average, subject dependent): about one
- average plasma half-life ([1]; normal renal function group): two
- plasma half-life ([1]; stage 3 renal impairment): 4 h
- Purity (HPLC) ([2]; 0 months): >99%
- Purity (HPLC) ([2]; 6 months): >99%
- Purity (HPLC) ([2]; 12 months): 98.9%
- Purity (HPLC) ([2]; 18 months): 98.3%
- Purity (HPLC) ([2]; 24 months): 97.8%
- MB-102 recovered from urine ([3]; patients having a mGFR value below 60, 12 hours, likewise unmetabolized): a lower percentage was recovered
- MB-102 recovered unmetabolized from urine ([3]; patients having an eGFR greater than 60, after 12 hours): greater than 99%
